ChEMBL document CHEMBL1201862, “PubChem BioAssay data set” (2004)
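Compound exposure: 48 hours, 5 concentrations, 96-well plates. GI50 marks 50% less growth.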 Calls of active or inactive are those of the source. No stated cut-off is given here; in the data, active = GI50 up to about 1.1 µM and inactive = higher.

What was measured:
Experiment in all cases: inhibition of tumour cell growth, NCI panel, 48 h
KM12 = tested on: KM12
UO-31 = tested on: UO-31
SF-268 = tested on: SF-268
OVCAR-4 = tested on: OVCAR-4
HL-60 = tested on: HL-60
HOP-62 = tested on: HOP-62
RPMI-8226 = tested on: RPMI-8226
Malme-3M = tested on: Malme-3M
OVCAR-8 = tested on: OVCAR-8
SW-620 = tested on: SW-620
M14 = tested on: M14
SF-539 = tested on: SF-539
COLO 205 = tested on: COLO 205
SF-295 = tested on: SF-295
HCT-116 = tested on: HCT-116
SK-OV-3 = tested on: SK-OV-3
IGROV-1 = tested on: IGROV-1
HOP-92 = tested on: HOP-92

Measured: GI50

CC(=O)Nc1ccc(C(=O)N2N=C(C)/C(=C\c3c(O)ccc4ccccc34)C2=O)cc1
inactive: KM12 > 100 µM | UO-31 39 µM | SF-268 56 µM | OVCAR-4 > 100 µM | HL-60 57.4 µM | HOP-62 > 100 µM | RPMI-8226 56.8 µM | Malme-3M 24 µM | OVCAR-8 88.1 µM | SW-620 75.2 µM | M14 85.1 µM | SF-539 56.4 µM | COLO 205 > 100 µM | SF-295 40.5 µM | HCT-116 93.5 µM

Cn1cc(NC(=O)c2cc(NC(=O)CCCCCCCCCCC(=O)Nc3cc(C(=O)Nc4cc(C(=O)NCCC(=N)N)n(C)c4)n(C)c3)cn2C)cc1C(=O)NCCC(=N)N
inactive: KM12 12.4 µM | UO-31 > 100 µM | SK-OV-3 > 100 µM | SF-268 30.6 µM | OVCAR-4 41.4 µM | HOP-62 25.9 µM | Malme-3M 2.18 µM | OVCAR-8 20.3 µM | SW-620 17.9 µM | M14 28.2 µM | SF-539 47.6 µM | IGROV-1 24.5 µM | COLO 205 9.73 µM | SF-295 50.8 µM | HCT-116 27 µM

CCOc1ccccc1N1C(=O)C(=O)C(c2nc3ccccc3s2)C(=O)C1=O
inactive: KM12 98.2 µM | UO-31 34.7 µM | SK-OV-3 30.9 µM | SF-268 82.6 µM | OVCAR-4 3.48 µM | HOP-62 46.8 µM | RPMI-8226 > 100 µM | HOP-92 36.2 µM | Malme-3M 33.8 µM | OVCAR-8 41.5 µM | SW-620 58.9 µM | M14 > 100 µM | SF-539 > 100 µM | IGROV-1 19.3 µM | COLO 205 > 100 µM | SF-295 41.7 µM | HCT-116 35.8 µM

CC1=CC(N2C(=O)C(C)=CC2O)NC1=O (stereo not given)
inactive: KM12 > 100 µM | UO-31 > 100 µM | SF-268 > 100 µM | OVCAR-4 > 100 µM | HL-60 > 100 µM | HOP-62 > 100 µM | HOP-92 > 100 µM | Malme-3M 45.8 µM | OVCAR-8 > 100 µM | SW-620 > 100 µM | M14 > 100 µM | SF-539 > 100 µM | COLO 205 > 100 µM | SF-295 > 100 µM | HCT-116 > 100 µM

Cc1cc(N(CCC#N)CCC#N)ccc1/C=C1/CN(N2C(=O)/C(=C/c3ccc(N(CCC#N)CCC#N)cc3C)N=C2c2ccccc2)C(c2ccccc2)=N1
inactive: KM12 > 100 µM | UO-31 > 100 µM | SF-268 > 100 µM | OVCAR-4 > 100 µM | HL-60 > 100 µM | HOP-62 34.6 µM | HOP-92 44.6 µM | Malme-3M > 100 µM | OVCAR-8 > 100 µM | SW-620 > 100 µM | M14 90.4 µM | SF-539 99.5 µM | IGROV-1 > 100 µM | COLO 205 > 100 µM | SF-295 48.8 µM | HCT-116 > 100 µM

Cn1c(=O)nc2n(-c3ccc(F)c(F)c3)c3ccccc3nc-2c1=O
inactive: KM12 20.8 µM | UO-31 37.9 µM | SK-OV-3 > 100 µM | SF-268 18.5 µM | OVCAR-4 8.83 µM | HL-60 10.6 µM | HOP-62 44.2 µM | RPMI-8226 16.8 µM | Malme-3M 11.3 µM | OVCAR-8 13.2 µM | SW-620 7.85 µM | M14 13.8 µM | SF-539 27.1 µM | IGROV-1 15.2 µM | COLO 205 4.08 µM | SF-295 14.3 µM | HCT-116 13.2 µM
